The record followed here is patent publication US10370366B2 (Flatley Discovery Lab, LLC, priority 2013, dated 2019).

This assay deals with T1, human F508del CFTR (Homo sapiens, UniProt P13569, DEL508-508).
T1 construct: expressed in transfected cells; host or cells: Fisher Rat Thyroid (FRT) cells
The assay can be described thus: CFTR-YFP High Throughput Assay. The note with it: FRT cells expressing human F508del CFTR and YFP; for Emax: EMax normalized to the positive control, read-out: % Efficacy. The format is cell-based. The procedure, abridged: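 FRT cells stably co-expressing human F508del CFTR and halide-sensitive YFP-H148Q/I152L; for correction, compound (2 nM-40 μM) incubated 24-26 h at 37° C, washed, then stimulated 60-120 min at RT with 20 μM forskolin plus 30 μM potentiator P3. Iodide-induced YFP quench (Ex 500/Em 540 nm) recorded; quench rates least-squares fitted.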

Usually EC50 stands for the concentration needed to bring the measured effect to its halfway point.

T1 sequence (P13569 with tags, fused parts or gaps DEL508-508): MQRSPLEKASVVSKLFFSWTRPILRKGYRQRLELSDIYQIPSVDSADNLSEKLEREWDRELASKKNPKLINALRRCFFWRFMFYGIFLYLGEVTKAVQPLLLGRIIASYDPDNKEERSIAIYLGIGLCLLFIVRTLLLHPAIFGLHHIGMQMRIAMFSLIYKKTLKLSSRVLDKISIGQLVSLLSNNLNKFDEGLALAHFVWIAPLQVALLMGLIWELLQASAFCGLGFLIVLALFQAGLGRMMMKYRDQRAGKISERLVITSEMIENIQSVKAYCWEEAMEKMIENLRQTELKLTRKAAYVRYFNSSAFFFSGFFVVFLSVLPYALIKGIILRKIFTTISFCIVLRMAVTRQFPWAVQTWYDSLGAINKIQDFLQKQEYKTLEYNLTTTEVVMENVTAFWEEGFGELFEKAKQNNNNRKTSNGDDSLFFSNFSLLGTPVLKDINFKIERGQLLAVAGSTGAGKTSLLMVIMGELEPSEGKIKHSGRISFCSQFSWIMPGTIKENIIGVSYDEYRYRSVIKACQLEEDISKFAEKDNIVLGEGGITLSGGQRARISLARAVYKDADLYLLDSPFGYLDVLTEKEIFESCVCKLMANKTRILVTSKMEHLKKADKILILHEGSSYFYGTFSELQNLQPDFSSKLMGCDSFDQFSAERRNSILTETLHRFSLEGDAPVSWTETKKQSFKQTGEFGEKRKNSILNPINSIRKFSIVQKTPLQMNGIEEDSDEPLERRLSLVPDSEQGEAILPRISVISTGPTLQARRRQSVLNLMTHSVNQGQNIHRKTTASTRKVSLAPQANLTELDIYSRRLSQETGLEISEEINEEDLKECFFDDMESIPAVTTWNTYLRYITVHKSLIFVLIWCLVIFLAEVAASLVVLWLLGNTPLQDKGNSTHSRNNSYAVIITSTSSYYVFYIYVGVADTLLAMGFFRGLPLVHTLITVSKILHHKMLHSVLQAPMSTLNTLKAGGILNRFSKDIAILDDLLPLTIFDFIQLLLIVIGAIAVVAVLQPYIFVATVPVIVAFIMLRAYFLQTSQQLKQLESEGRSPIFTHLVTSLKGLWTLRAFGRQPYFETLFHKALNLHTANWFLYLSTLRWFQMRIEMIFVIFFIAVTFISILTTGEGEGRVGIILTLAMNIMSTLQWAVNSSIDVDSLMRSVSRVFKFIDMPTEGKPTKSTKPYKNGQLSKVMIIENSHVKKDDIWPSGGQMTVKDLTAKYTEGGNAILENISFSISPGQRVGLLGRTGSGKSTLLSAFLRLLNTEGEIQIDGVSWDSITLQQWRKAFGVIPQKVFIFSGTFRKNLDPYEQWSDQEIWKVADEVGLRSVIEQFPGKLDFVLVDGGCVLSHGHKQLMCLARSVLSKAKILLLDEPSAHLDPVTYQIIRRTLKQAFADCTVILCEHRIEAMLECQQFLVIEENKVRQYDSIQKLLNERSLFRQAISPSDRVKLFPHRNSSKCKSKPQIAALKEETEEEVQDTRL

`CCN(C(=O)Cn1nc(-c2cccc(C#N)c2)c2ccc(O)cc2c1=O)c1ccc2c(c1)OC(F)(F)O2` [Example 103, 2-(4-(3-cyanophenyl)-7-hydroxy-1-oxophthalazin-2(1H)-yl)-N-(2,2-difluorobenzo[d][1,3]dioxol-5-yl)-N-ethylacetamide]: the Emax is more than 80% and the EC50 is less than 10 µM.

As to `CCN(C(=O)c1nn(-c2ccc(C)cc2)c(=O)c2c1c1cccc(OC)c1n2C)c1ccccc1` [Example 189, N-ethyl-6-methoxy-5-methyl-4-oxo-N-phenyl-3-(p-tolyl)-4,5-dihydro-3H-pyridazino[4,5-b]indole-1-carboxamide], the Emax was in the range of 30 to 80% and the EC50 is more than 20 µM.

As to `CCc1ccc(N(CC)C(=O)Cn2nc(-c3ccc(C(=O)OC)cc3)c3ccccc3c2=O)cc1` [Example 15, methyl 4-(3-(2-(ethyl(4-ethylphenyl)amino)-2-oxoethyl)-4-oxo-3,4-dihydrophthalazin-1-yl)benzoate], the Emax fell in the range of 10 to 30% and the EC50 is more than 20 µM.

As to `CCc1ccc(N(CC)C(=O)Cn2nc(Cc3cccnc3)c3cc(OC)c(OC)cc3c2=O)cc1` [Example 32, 2-(6,7-dimethoxy-1-oxo-4-(pyridin-3-ylmethyl)phthalazin-2(1H)-yl)-N-ethyl-N-(4-ethylphenyl)acetamide], the Emax is 10 to 30%.

Consider `COc1ccc2c(-c3cccc(Cl)c3)nn(CC(=O)C3(c4ccc5c(c4)OC(F)(F)O5)CC3)c(=O)c2c1` [Example 249, 4-(3-chlorophenyl)-2-(2-(1-(2,2-difluorobenzo[d][1,3]dioxol-5-yl)cyclopropyl)-2-oxoethyl)-7-methoxyphthalazin-1(2H)-one], for which the Emax was more than 80% and the EC50 was less than 10 µM.

`CCc1ccc(N(CC)C(=O)Cn2nc(-c3cccc(N)c3)c3ccccc3c2=O)cc1` [Example 8, 2-(4-(3-aminophenyl)-1-oxophthalazin-2(1H)-yl)-N-ethyl-N-(4-ethylphenyl)acetamide]: the Emax fell in the range of 30 to 80% and the EC50 was less than 10 µM.

Consider `CCN(CC)C(=O)c1nn(CC(=O)N(CC)c2cccc(Cl)c2)c(=O)c2c1c1ccccc1n2C` [Example 213, 3-(2-((3-chlorophenyl)(ethyl)amino)-2-oxoethyl)-N,N-diethyl-5-methyl-4-oxo-4,5-dihydro-3H-pyridazino[4,5-b]indole-1-carboxamide], for which the Emax is 30 to 80% and the EC50 was less than 10 µM.

For `CCc1ccc(N(CC)C(=O)Cn2nc(-c3cccc4cnccc34)c3ccccc3c2=O)cc1` [Example 6, N-ethyl-N-(4-ethylphenyl)-2-(4-(isoquinolin-5-yl)-1-oxophthalazin-2(1H)-yl)acetamide], the Emax was in the range of 30 to 80%.

On to `CCN(C(=O)c1nn(-c2ncccn2)c(=O)c2c1c1ccccc1n2C)c1ccccc1` [Example 171, N-ethyl-5-methyl-4-oxo-N-phenyl-3-(pyrimidin-2-yl)-4,5-dihydro-3H-pyridazino[4,5-b]indole-1-carboxamide], for which the Emax fell in the range of 10 to 30% and the EC50 was more than 20 µM.

Consider `CCN(C(=O)Cn1ncc2c(c1=O)c1ccccc1n2CCOC)c1ccc2c(c1)OC(F)(F)O2` [Example 132, N-(2,2-difluorobenzo[d][1,3]dioxol-5-yl)-N-ethyl-2-(5-(2-methoxyethyl)-1-oxo-1H-pyridazino[4,5-b]indol-2(5H)-yl)acetamide], for which the Emax was in the range of 30 to 80%.

On to `CCN(C(=O)Cn1ncc2c(c1=O)c1ccccc1n2Cc1ccccc1)c1ccc2c(c1)OC(F)(F)O2` [Example 133, 2-(5-benzyl-1-oxo-1H-pyridazino[4,5-b]indol-2(5H)-yl)-N-(2,2-difluorobenzo[d][1,3]dioxol-5-yl)-N-ethylacetamide], for which the Emax was in the range of 30 to 80%.

On to `CCN(C(=O)Cn1nc(C(=O)Nc2ccccc2C#N)c2ccccc2c1=O)c1ccc2c(c1)OC(F)(F)O2` [Example 124, N-(2-cyanophenyl)-3-(2-((2,2-difluorobenzo[d][1, 3]dioxol-5-yl)(ethyl)amino)-2-oxoethyl)-4-oxo-3,4-dihydrophthalazine-1-carboxamide], for which the Emax lay within 30 to 80%.

As for `CCc1ccc(N(CC)C(=O)Cn2nc(Cc3cccnc3)c3cc(Cl)c(Cl)cc3c2=O)cc1` [Example 38, 2-(6,7-dichloro-1-oxo-4-(pyridin-3-ylmethyl)phthalazin-2(1H)-yl)-N-ethyl-N-(4-ethylphenyl)acetamide], the Emax is 30 to 80% and the EC50 is less than 10 µM.

With `CCN(C(=O)c1nn(-c2ccc(C)cc2)c(=O)c2c1c1c(C)cccc1n2C)c1ccccc1` [Example 196, N-ethyl-5,9-dimethyl-4-oxo-N-phenyl-3-(p-tolyl)-4,5-dihydro-3H-pyridazino[4,5-b]indole-1-carboxamide], the Emax was more than 80% and the EC50 is more than 20 µM.

`CCN(C(=O)c1nn(-c2ccc(C)cc2)c(=O)c2c1c1ccccc1n2CC#N)c1ccccc1` [Example 223, 5-(cyanomethyl)-N-ethyl-4-oxo-N-phenyl-3-(p-tolyl)-4,5-dihydro-3H-pyridazino[4,5-b]indole-1-carboxamide]: the Emax fell in the range of 30 to 80%.

Regarding `CCc1ccc(N(CC)C(=O)Cn2nc(Cc3cccnc3)c3cccc(F)c3c2=O)cc1` [Example 37, N-ethyl-N-(4-ethylphenyl)-2-(8-fluoro-1-oxo-4-(pyridin-3-ylmethyl)phthalazin-2(1H)-yl)acetamide], the Emax is 30 to 80%.

On to `CC(C)N(C(=O)c1nn(-c2cnc3ccccc3c2)c(=O)c2c1c1ccccc1n2C)c1ccccc1` [Example 191, N-isopropyl-5-methyl-4-oxo-N-phenyl-3-(quinolin-3-yl)-4,5-dihydro-3H-pyridazino[4,5-b]indole-1-carboxamide], for which the Emax was 30 to 80% and the EC50 is more than 20 µM.

Turning to `CCN(C(=O)c1nn(-c2ccc(C)cc2)c(=O)c2c1c1c(OC)cccc1n2C)c1ccccc1` [Example 195, N-ethyl-9-methoxy-5-methyl-4-oxo-N-phenyl-3-(p-tolyl)-4,5-dihydro-3H-pyridazino[4,5-b]indole-1-carboxamide], the Emax lay in the range of 30 to 80% and the EC50 is less than 10 µM.

In the case of `CCN(C(=O)c1nn(Cc2ccccc2)c(=O)c2c1c1ccccc1n2C)c1ccccc1` [Example 197, 3-benzyl-N-ethyl-5-methyl-4-oxo-N-phenyl-4,5-dihydro-3H-pyridazino[4,5-b]indole-1-carboxamide], the Emax was in the range of 30 to 80%.

Turning to `COc1cc2c(=O)n(CC(=O)N(C)c3ccc4c(c3)OC(F)(F)O4)nc(-c3cccc(C#N)c3)c2cc1Cl` [Example 96, 2-(6-chloro-4-(3-cyanophenyl)-7-methoxy-1-oxophthalazin-2(1H)-yl)-N-(2,2-difluorobenzo[d][1,3]dioxol-5-yl)-N-methylacetamide], the Emax is more than 80% and the EC50 was less than 10 µM.

On to `CCN(CC)C(=O)c1nn(CC(O)COCc2ccccc2)c(=O)c2c1c1c(Cl)cccc1n2C` (centres unmarked) [Example 233, 3-(3-(benzyloxy)-2-hydroxypropyl)-9-chloro-N,N-diethyl-5-methyl-4-oxo-4,5-dihydro-3H-pyridazino[4,5-b]indole-1-carboxamide], for which the Emax lay within 30 to 80% and the EC50 is less than 10 µM.

Consider `CCN(C(=O)c1nn(-c2ccc(C)cc2)c(=O)c2[nH]c3ccccc3c12)c1ccccc1` [Example 220, N-Ethyl-4-oxo-N-phenyl-3-p-tolyl-4,5-dihydro-3H-pyridazino[4,5-b]indole-1-carboxamide], for which the Emax fell in the range of 30 to 80%.

With `CCN(C(=O)c1nn(-c2ccc(C)cc2)c(=O)c2c1c1ccccc1n2C)C1CC1` [Example 160, N-cyclopropyl-N-ethyl-5-methyl-4-oxo-3-(p-tolyl)-4,5-dihydro-3H-pyridazino[4,5-b]indole-1-carboxamide], the Emax is 30 to 80%.

`CCN(C(=O)Cn1nc(-c2cccc(F)c2)c2ccccc2c1=O)c1ccc2c(c1)OC(F)(F)O2` [Example 23, N-(2,2-difluorobenzo[d][1, 3]dioxol-5-yl)-N-ethyl-2-(4-(3-fluorophenyl)-1-oxophthalazin-2(1H)-yl)acetamide]: the Emax was more than 80% and the EC50 was less than 10 µM.

As to `CCc1ccc(N(CC)C(=O)Cn2nc(Cc3cccnc3)c3ccc(Cl)cc3c2=O)cc1` [Example 39, 2-(7-chloro-1-oxo-4-(pyridin-3-ylmethyl)phthalazin-2(1H)-yl)-N-ethyl-N-(4-ethylphenyl)acetamide], the Emax is 30 to 80% and the EC50 was more than 20 µM.

As to `Cn1c2ccccc2c2c(-c3cccc(C#N)c3)nn(C3CCCCC3)c(=O)c21` [Example 244, 3-(3-cyclohexyl-5-methyl-4-oxo-4,5-dihydro-3H-pyridazino[4,5-b]indol-1-yl)benzonitrile], the Emax lay in the range of 30 to 80% and the EC50 was less than 10 µM.

Take `CCN(C(=O)Cn1nc(-c2cccnc2)c2ccccc2c1=O)c1ccc2c(c1)OC(F)(F)O2` [Example 24, N-(2,2-difluorobenzo[d][1, 3]dioxol-5-yl)-N-ethyl-2-(1-oxo-4-(pyridin-3-yl)phthalazin-2(1H)-yl)acetamide]: the Emax was in the range of 30 to 80% and the EC50 is less than 10 µM.

Take `CC(C)N(C(=O)c1nn(-c2ccccc2)c(=O)c2c1c1ccccc1n2C)c1ccc(Cl)cc1` [Example 190, N-(4-chlorophenyl)-N-isopropyl-5-methyl-4-oxo-3-phenyl-4,5-dihydro-3H-pyridazino[4,5-b]indole-1-carboxamide]: the Emax lay in the range of 30 to 80% and the EC50 was less than 10 µM.

With `CCN(C(=O)c1nn(-c2ccccn2)c(=O)c2c1c1ccccc1n2C)c1ccccc1` [Example 167, N-ethyl-5-methyl-4-oxo-N-phenyl-3-(pyridin-2-yl)-4,5-dihydro-3H-pyridazino[4,5-b]indole-1-carboxamide], the Emax fell in the range of 30 to 80%.
